Results reported in ChEMBL document CHEMBL1681651, “A broad spectrum anticancer nucleoside with selective toxicity against human colon cells in vitro” (2011).

Assays:
Assay type in all cases: functional
[1] = tested on: A498; assay: Growth inhibition of human A498 cells assessed as cell growth at 1 uM after 48 hrs by SRB assay; conditions: A498, 48 h, read-out: Activity
[2] = tested on: UO-31; assay: Growth inhibition of human UO31 cells assessed as cell growth at 1 uM after 48 hrs by SRB assay; conditions: UO-31, 48 h, read-out: Activity
[3] = tested on: MOLT-4; assay: Growth inhibition of human MOLT4 cells assessed as cell growth at 10 uM after 48 hrs by SRB assay; conditions: MOLT-4, 48 h, read-out: Activity
[4] = tested on: EKVX; assay: Growth inhibition of human EKVX cells assessed as cell growth at 10 uM after 48 hrs by SRB assay; conditions: read-out: Activity
[5] = tested on: HOP-92; assay: Growth inhibition of human HOP92 cells assessed as cell growth at 10 uM after 48 hrs by SRB assay; conditions: HOP-92, 48 h, read-out: Activity
[6] = tested on: NCI-H460; assay: Growth inhibition of human NCI-H460 cells assessed as cell growth at 10 uM after 48 hrs by SRB assay; conditions: NCI-H460, 48 h, read-out: Activity
[7] = tested on: HCT-116; assay: Growth inhibition of human HCT116 cells assessed as cell growth at 10 uM after 48 hrs by SRB assay; conditions: HCT-116, 48 h, read-out: Activity
[8] = tested on: EKVX; assay: Growth inhibition of human EKVX cells after 48 hrs by […] growth inhibition assay
[9] = tested on: HOP-92; assay: Growth inhibition of human HOP92 cells after 48 hrs by […] growth inhibition assay; conditions: HOP-92, 48 h
[10] = tested on: NCI-H23; assay: Growth inhibition of human NCI-H23 cells after 48 hrs by […] growth inhibition assay; conditions: NCI-H23, 48 h
[11] = tested on: COLO 205; assay: Growth inhibition of human COLO205 cells after 48 hrs by […] growth inhibition assay; conditions: COLO 205, 48 h
[12] = tested on: HCC 2998; assay: Growth inhibition of human HCC2998 cells after 48 hrs by […] growth inhibition assay; conditions: HCC 2998, 48 h
[13] = tested on: SK-MEL-5; assay: Growth inhibition of human SK-MEL-5 cells after 48 hrs by […] growth inhibition assay; conditions: SK-MEL-5, 48 h
[14] = tested on: SNB-19; assay: Growth inhibition of human SNB19 cells after 48 hrs by […] growth inhibition assay; conditions: SNB-19, 48 h
[15] = tested on: IGROV-1; assay: Growth inhibition of human IGROV1 cells after 48 hrs by […] growth inhibition assay; conditions: IGROV-1, 48 h
[16] = tested on: ACHN; assay: Growth inhibition of human ACHN cells after 48 hrs by […] growth inhibition assay
[17] = tested on: HOP-62; assay: Growth inhibition of human HOP62 cells assessed as cell growth at 0.1 uM after 48 hrs by SRB assay; conditions: HOP-62, 48 h, read-out: Activity
[18] = tested on: SNB-19; assay: Growth inhibition of human SNB19 cells assessed as cell growth at 0.1 uM after 48 hrs by SRB assay; conditions: SNB-19, 48 h, read-out: Activity
[19] = tested on: UACC-62; assay: Growth inhibition of human UACC62 cells assessed as cell growth at 0.1 uM after 48 hrs by SRB assay; conditions: UACC-62, 48 h, read-out: Activity
[20] = tested on: SN12C; assay: Growth inhibition of human SN12C cells assessed as cell growth at 0.1 uM after 48 hrs by SRB assay; conditions: read-out: Activity
[21] = tested on: U-251; assay: Growth inhibition of human U251 cells assessed as cell growth at 10 uM after 48 hrs by SRB assay; conditions: U-251, 48 h, read-out: Activity
[22] = tested on: TK-10; assay: Growth inhibition of human TK10 cells assessed as cell growth at 10 uM after 48 hrs by SRB assay; conditions: TK-10, 48 h, read-out: Activity
[23] = tested on: EKVX; assay: Growth inhibition of human EKVX cells assessed as cell growth at 100 uM after 48 hrs by SRB assay; conditions: read-out: Activity
[24] = tested on: SK-MEL-2; assay: Growth inhibition of human SK-MEL-2 cells assessed as cell growth at 100 uM after 48 hrs by SRB assay; conditions: SK-MEL-2, 48 h, read-out: Activity
[25] = tested on: HCC 2998; assay: Growth inhibition of human HCC2998 cells assessed as cell growth at 1 mM after 48 hrs by SRB assay; conditions: HCC 2998, 48 h, read-out: Activity
[26] = tested on: UACC-62; assay: Growth inhibition of human UACC62 cells assessed as cell growth at 1 mM after 48 hrs by SRB assay; conditions: UACC-62, 48 h, read-out: Activity
[27] = tested on: UO-31; assay: Growth inhibition of human UO31 cells assessed as cell growth at 1 mM after 48 hrs by SRB assay; conditions: UO-31, 48 h, read-out: Activity
[28] = tested on: HCC 2998; assay: Growth inhibition of human HCC2998 cells assessed as cell growth at 1 uM after 48 hrs by SRB assay; conditions: HCC 2998, 48 h, read-out: Activity
[29] = tested on: HCT-15; assay: Growth inhibition of human HCT15 cells assessed as cell growth at 1 uM after 48 hrs by SRB assay; conditions: HCT-15, 48 h, read-out: Activity
[30] = tested on: HT-29; assay: Growth inhibition of human HT-29 cells assessed as cell growth at 1 uM after 48 hrs by SRB assay; conditions: HT-29, 48 h, read-out: Activity
[31] = tested on: IGROV-1; assay: Growth inhibition of human IGROV1 cells assessed as cell growth at 1 uM after 48 hrs by SRB assay; conditions: IGROV-1, 48 h, read-out: Activity
[32] = read-out: LC50 (the source's name)
[33] = read-out: pLC50 (the source's name) (converted)

CNC(=O)NC[C@H]1O[C@@H](n2cnc3c(NC(=O)Nc4ccccc4)ncnc32)[C@H](O[Si](C)(C)C(C)(C)C)[C@@H]1CC(=O)N(C)OC was tested, and the growth at 1 µM [1] was 96%, the growth at 1 µM [2] was 89% and the growth at 10 µM [3] was 78%. The growth at 10 µM [4] was 95%, the growth at 10 µM [5] was 67% and the growth at 10 µM [6] was 90%. The growth at 10 µM [7] was 89%, the GI50 ([8]; read-out: GI50) was 26.4 µM and the CC50 [8, 32] was > 100 µM. For the same compound, the TGI ([8]; read-out: TGI) was > 100 µM, the GI50 ([8]; read-out: pGI50 (converted)) was 26.3 µM and the CC50 [8, 33] was > 100 µM. The TGI ([8]; read-out: pTGI (converted)) was > 100 µM, the GI50 ([9]; read-out: GI50) was 2710 nM and the CC50 [9, 32] was > 100 µM. For the same compound, the TGI ([9]; read-out: TGI) was 24.3 µM, the GI50 ([9]; read-out: pGI50 (converted)) was 2690 nM and the CC50 [9, 33] was > 100 µM. The TGI ([9]; read-out: pTGI (converted)) was 24 µM, the GI50 ([10]; read-out: GI50) was 57.2 µM and the CC50 [10, 32] was > 100 µM. For the same compound, the TGI ([10]; read-out: TGI) was > 100 µM, the GI50 ([10]; read-out: pGI50 (converted)) was 57.5 µM and the CC50 [10, 33] was > 100 µM. For the same compound, the TGI ([10]; read-out: pTGI (converted)) was > 100 µM, the GI50 ([11]; read-out: GI50) was 12.3 µM and the CC50 [11, 32] was > 100 µM. The TGI ([11]; read-out: TGI) was > 100 µM, the GI50 ([11]; read-out: pGI50 (converted)) was 12.3 µM and the CC50 [11, 33] was > 100 µM. For the same compound, the TGI ([11]; read-out: pTGI (converted)) was > 100 µM, the GI50 ([12]; read-out: GI50) was 30.6 µM and the CC50 [12, 32] was > 100 µM. For the same compound, the TGI ([12]; read-out: TGI) was > 100 µM, the GI50 ([12]; read-out: pGI50 (converted)) was 30.9 µM and the CC50 [12, 33] was > 100 µM. The TGI ([12]; read-out: pTGI (converted)) was > 100 µM, the GI50 ([13]; read-out: GI50) was 5.81 µM and the CC50 [13, 32] was > 100 µM. The TGI ([13]; read-out: TGI) was > 100 µM, the GI50 ([13]; read-out: pGI50 (converted)) was 5.75 µM and the CC50 [13, 33] was > 100 µM. The TGI ([13]; read-out: pTGI (converted)) was > 100 µM, the GI50 ([14]; read-out: GI50) was > 100 µM and the CC50 [14, 32] was > 100 µM. For the same compound, the TGI ([14]; read-out: TGI) was > 100 µM, the GI50 ([14]; read-out: pGI50 (converted)) was > 100 µM and the CC50 [14, 33] was > 100 µM. For the same compound, the TGI ([14]; read-out: pTGI) was > 100 µM, the GI50 ([15]; read-out: GI50) was 3.72 µM and the CC50 [15, 32] was > 100 µM. The TGI ([15]; read-out: TGI) was 65.7 µM, the GI50 ([15]; read-out: pGI50 (converted)) was 3.72 µM and the CC50 [15, 33] was > 100 µM. The TGI ([15]; read-out: pTGI (converted)) was 66.1 µM, the GI50 ([16]; read-out: GI50) was 14.4 µM and the CC50 [16, 32] was > 100 µM. For the same compound, the TGI ([16]; read-out: TGI) was > 100 µM, the GI50 ([16]; read-out: pGI50 (converted)) was 14.5 µM and the CC50 [16, 33] was > 100 µM. For the same compound, the TGI ([16]; read-out: pTGI) was > 100 µM, the growth at 0.1 µM [17] was 92% and the growth at 0.1 µM [18] was 94%. The growth at 0.1 µM [19] was 102%, the growth at 0.1 µM [20] was 106% and the growth at 10 µM [21] was 90%. For the same compound, the growth at 10 µM [22] was 104%, the growth at 100 µM [23] was 60% and the growth at 100 µM [24] was 62%. It also gave a growth at 1000 µM [25] of 33%, a growth at 1000 µM [26] of 39% and a growth at 1000 µM [27] of 32%. For the same compound, the growth at 1 µM [28] was 97%, the growth at 1 µM [29] was 94% and the growth at 1 µM [30] was 107%. It also gave a growth at 1 µM [31] of 89%.
